Measurements taken from patent publication US12558348B2, “Bioactive phytochemicals” (Phytoquest Limited, priority 2019, dated 2026).

Tests used:
THP-1 cells = test: Viability of THP-1 cells (trypan blue uptake or MTT dye conversion); format: cell-based, human
CD44-HA binding = test: CD44-HA (hyaluronic acid) binding activity in THP-1 cells by ELISA; format: cell-based, human; details: for CD44-HA: LPS-stimulated THP-1; for % reduction in CD44-HA levels: vs LPS control
Protocol: The THP-1 cells were cultured in RPMI media supplemented with mercaptoethanol & glutamine to get 80% confluence in the culture flask, then aspirated and centrifuged at 1500 rpm for 5 mins. The cell pellet was then resuspended in 1 ml of RPMI complete media and counted conventionally using a hemocytometer. The cells (5×106) were incubated with Phorbol 12-myristate 13-acetate (PMA) (10 ng/ml) in separate dishes to cause differentiation of the THP-1 cells. To determine the CD44-HA binding activity, THP-1 cells were pretreated for 1 hr with idoBR1 or cucumber extract-Q-actin (batch no. B17CF001) at the concentrations 100 μg/ml to 12.5 μg/ml and 200 μg/ml to 25 μg/ml respectively followed by 24 hr LPS (1 μg/ml) stimulation. Post incubation, the cell lysates were taken for further analysis.
Anti-CD44 monoclonal antibody (Invitrogen, 2 μg) was coated to each well in 96-well plates in 50 mM carbonate/bicarbonate buffer (pH 9.6) and incubated overnight at 4° C. The unbound antibodies were removed using PBS with 0.05% Tween 20 (PBS-T wash solution). The wells were blocked using 1% BSA and incubated for 1 hr at 37° C. The wells were washed thrice thoroughly using PBS-T wash solution by adding 200 μl into wells. 50 μl cell lysates were added to the wells and incubated for 1 hr at 37° C. The wells were then washed thrice by adding 200 μl of PBS-T by soaking the wells for 30 secs before each wash. Biotinylated-Hyaluronic acid (HA) antibody followed by Streptavidin-HRP was added to form an immune complex and incubated for 60 mins at 37° C. The solution was aspirated and the wells washed thrice with 200 μl wash solution by soaking the wells for 30 secs. 50 μl of both Chromogen A and Chromogen B was added to each well. The plate was incubated for 15 mins away from light at 37° C. The reaction was stopped by adding 50 μl Stop Solution and the absorbance was read at 450 nm.

O=C(O)[C@@H]1NC[C@H](O)[C@@H](O)[C@@H]1O [idoBR1, (2R,3R,4R,5S)-3,4,5-trihydroxypiperidine-2-carboxylic acid]
viability of THP-1 cells (THP-1 cells): did not significantly alter
CD44-HA (CD44-HA binding; 12.5 μg/mL): 101.48 ng/mL
% reduction in CD44-HA levels (CD44-HA binding; 12.5 μg/mL): 8.12%
CD44-HA (CD44-HA binding; 25 μg/mL): 94.93 ng/mL
% reduction in CD44-HA levels (CD44-HA binding; 25 μg/mL): 14.05%
CD44-HA (CD44-HA binding; 50 μg/mL): 88.43 ng/mL
% reduction in CD44-HA levels (CD44-HA binding; 50 μg/mL): 19.93%
CD44-HA (CD44-HA binding; 100 μg/mL): 81.04 ng/mL
% reduction in CD44-HA levels (CD44-HA binding; 100 μg/mL): 26.62%
